Results taken from PubChem BioAssay (NCI).
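Where inhibition never reached the appropriate level, the endpoint shown equals the highest concentration tested. Otherwise, values were interpolated linearly from a five-concentration, 48-hour dose response in 96-well plates. TGI denotes the concentration required for complete inhibition of growth.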

Tests used:
Experiment in all cases: inhibition of tumour cell growth, NCI panel, 48 h
[1] = tested on: NCI-H460 lung
[2] = tested on: UACC-257 melanoma
[3] = tested on: BT-549 breast
[4] = tested on: UO-31 renal
[5] = tested on: SR leukemia
[6] = tested on: SK-MEL-5 melanoma
[7] = tested on: NCI/ADR-RES ovarian
[8] = tested on: RPMI-8226 leukemia
[9] = tested on: OVCAR-8 ovarian
[10] = tested on: RXF 393 renal
[11] = tested on: MOLT-4 leukemia
[12] = tested on: HS 578T breast
[13] = tested on: A549 NSCLC
[14] = tested on: MDA-MB-435
[15] = tested on: HOP-62 NSCLC
[16] = tested on: HL-60(TB) leukemia

`CCOC(=O)/C=C(/C(=O)OCC)n1ccc(=O)n(Cc2cn(COCCOC(C)=O)nn2)c1=O` gave a TGI [1] of 29 µM, a TGI [2] of 42.4 µM and a TGI [3] of 30.4 µM. For the same molecule, the TGI [4] was 31.9 µM, the TGI [5] was 52.6 µM and the TGI [6] was 75.4 µM. The TGI [7] was 48.1 µM, the TGI [8] was 50.3 µM and the TGI [9] was 30 µM. It also gave a TGI [10] of 56.2 µM, a TGI [11] of 41.3 µM and a TGI [12] of 70.9 µM. The TGI [13] was > 100 µM, the TGI [14] was 36 µM and the TGI [15] was > 100 µM.

In the case of `CCOC(=O)c1nc2ccc(C(F)(F)F)cc2nc1NCc1cc(OC)c(OC)c(OC)c1`, the TGI [2] is reported as > 100 µM, the TGI [3] is reported as > 100 µM and the TGI [4] is reported as 99.5 µM. For the same molecule, the TGI [5] was 48.5 µM, the TGI [6] was > 100 µM and the TGI [7] was > 100 µM. For the same molecule, the TGI [8] was 48 µM, the TGI [9] was > 100 µM and the TGI [10] was > 100 µM. For the same molecule, the TGI [11] was > 100 µM, the TGI [12] was > 100 µM and the TGI [13] was > 100 µM. The TGI [14] was > 100 µM, the TGI [15] was > 100 µM and the TGI [16] was 83.4 µM.

With `CCN(CC)C(=O)Cn1c(C)cc2ccccc21` the TGI [1] was > 100 µM, the TGI [2] was > 100 µM and the TGI [3] was > 100 µM. The TGI [4] was > 100 µM, the TGI [5] was > 100 µM and the TGI [6] was > 100 µM. The TGI [7] was > 100 µM, the TGI [8] was > 100 µM and the TGI [9] was > 100 µM. For the same molecule, the TGI [10] was > 100 µM, the TGI [11] was > 100 µM and the TGI [12] was > 100 µM. The TGI [13] was > 100 µM, the TGI [14] was > 100 µM and the TGI [15] was > 100 µM. For the same molecule, the TGI [16] was > 100 µM.

`COc1ccc2ccccc2c1/C=C/C(=O)c1ccccc1` was tested, and the TGI [1] was 3.76 µM, the TGI [2] was 16 µM and the TGI [3] was 14.7 µM. For the same molecule, the TGI [4] was 9.36 µM, the TGI [5] was 2.55 µM and the TGI [6] was 16.1 µM. For the same molecule, the TGI [7] was > 54.8 µM, the TGI [8] was 4.07 µM and the TGI [9] was 11.2 µM. It also gave a TGI [10] of 3.88 µM, a TGI [11] of 6.78 µM and a TGI [12] of 38.7 µM. It also gave a TGI [13] of 10.4 µM, a TGI [14] of 7.18 µM and a TGI [15] of 9 µM. For the same molecule, the TGI [16] was 4.33 µM.

Work on `Oc1ccc(-c2nc(-c3cccnc3)c(-c3ccc(Cl)cc3)[nH]2)cc1` yielded a TGI [1] of 24 µM, a TGI [2] of 29.6 µM and a TGI [3] of 29 µM. The TGI [4] was 22.9 µM, the TGI [5] was 44.1 µM and the TGI [6] was 27.2 µM. It also gave a TGI [7] of 36.9 µM, a TGI [8] of 30 µM and a TGI [9] of 28.4 µM. The TGI [10] was 26.5 µM, the TGI [11] was 18.1 µM and the TGI [12] was 56 µM. For the same molecule, the TGI [13] was 30.1 µM, the TGI [14] was 25.5 µM and the TGI [15] was 30.9 µM. The TGI [16] was 36.7 µM.

`COC1=C(OC)C(=O)C(Cc2c(C)nc3sc(C)cn23)=C(C)C1=O` showed a TGI [1] of 54.3 µM, a TGI [2] of 26.1 µM and a TGI [3] of 31.2 µM. For the same molecule, the TGI [4] was 31.6 µM, the TGI [5] was 43.1 µM and the TGI [6] was 28.6 µM. It also gave a TGI [7] of 36.7 µM, a TGI [8] of 39.2 µM and a TGI [9] of 32.8 µM. The TGI [10] was 42.4 µM, the TGI [11] was 4.23 µM and the TGI [12] was 67.1 µM. It also gave a TGI [13] of 49.5 µM, a TGI [14] of 33.6 µM and a TGI [15] of 35.7 µM. The TGI [16] was 29.8 µM.

`COC(CNC(=O)C(C)NC(=O)CCc1ccccc1)OC` (centres undefined) was tested, and the TGI [1] was > 100 µM, the TGI [2] was > 100 µM and the TGI [3] was > 100 µM. For the same molecule, the TGI [4] was > 100 µM, the TGI [5] was > 100 µM and the TGI [6] was > 100 µM. The TGI [7] was > 100 µM, the TGI [8] was > 100 µM and the TGI [9] was > 100 µM. The TGI [10] was > 100 µM, the TGI [11] was > 100 µM and the TGI [12] was > 100 µM. For the same molecule, the TGI [13] was > 100 µM, the TGI [14] was > 100 µM and the TGI [16] was > 100 µM.

`O=C1/C(=C/c2ccc([N+](=O)[O-])cc2)C(=O)N(c2ccccc2)C1c1ccccc1` (centres undefined) was tested, and the TGI [1] was > 10 µM, the TGI [2] was > 10 µM and the TGI [3] was > 10 µM. The TGI [4] was > 10 µM, the TGI [5] was > 10 µM and the TGI [6] was > 10 µM. The TGI [7] was > 10 µM, the TGI [8] was > 10 µM and the TGI [9] was > 10 µM. The TGI [10] was > 10 µM, the TGI [11] was > 10 µM and the TGI [12] was > 10 µM. The TGI [13] was > 10 µM, the TGI [14] was > 10 µM and the TGI [15] was > 10 µM. The TGI [16] was > 10 µM.

In the case of `CC1=NNC(N)=N/C1=C\C(Sc1ccc(Cl)cc1)c1ccc([N+](=O)[O-])cc1` (centres undefined), the TGI [1] is reported as > 100 µM, the TGI [2] is reported as > 100 µM and the TGI [3] is reported as > 100 µM. The TGI [4] was > 100 µM, the TGI [5] was > 100 µM and the TGI [6] was > 100 µM. The TGI [7] was > 100 µM, the TGI [8] was > 100 µM and the TGI [9] was > 100 µM. For the same molecule, the TGI [10] was > 100 µM, the TGI [11] was > 100 µM and the TGI [12] was > 100 µM. The TGI [13] was > 100 µM, the TGI [14] was > 100 µM and the TGI [15] was > 100 µM. For the same molecule, the TGI [16] was 76.4 µM.

For `O=Cc1ccc(OCc2cccc(COc3ccc(/C=N\Nc4ccc([N+](=O)[O-])cc4[N+](=O)[O-])cc3)n2)cc1`, the TGI [1] was > 100 µM, the TGI [2] was > 100 µM and the TGI [3] was > 100 µM. For the same molecule, the TGI [4] was > 100 µM, the TGI [5] was 75.3 µM and the TGI [6] was > 100 µM. For the same molecule, the TGI [7] was > 100 µM, the TGI [8] was > 100 µM and the TGI [9] was > 100 µM. The TGI [10] was > 100 µM, the TGI [11] was 80.2 µM and the TGI [12] was > 100 µM. The TGI [13] was > 100 µM, the TGI [14] was > 100 µM and the TGI [15] was > 100 µM. The TGI [16] was > 100 µM.

In the case of `CCOC(=O)CNc1c(OCc2ccccc2)c(=O)c1=O`, the TGI [2] is reported as > 100 µM, the TGI [3] is reported as > 100 µM and the TGI [4] is reported as > 100 µM. For the same molecule, the TGI [5] was > 100 µM, the TGI [6] was > 100 µM and the TGI [7] was > 100 µM. For the same molecule, the TGI [8] was > 100 µM, the TGI [9] was > 100 µM and the TGI [10] was > 100 µM. For the same molecule, the TGI [11] was > 100 µM, the TGI [12] was > 100 µM and the TGI [13] was > 100 µM. For the same molecule, the TGI [14] was > 100 µM and the TGI [15] was > 100 µM.

In the case of `N=C(N)c1ccc(C(NC(=O)CNS(=O)(=O)c2ccc3ccccc3c2)P(=O)(Oc2ccccc2)Oc2ccccc2)cc1` (centres undefined), the TGI [1] is reported as > 100 µM, the TGI [2] is reported as > 100 µM and the TGI [3] is reported as 66.2 µM. The TGI [4] was > 100 µM, the TGI [5] was > 100 µM and the TGI [6] was > 100 µM. For the same molecule, the TGI [7] was > 100 µM, the TGI [8] was > 100 µM and the TGI [9] was > 100 µM. The TGI [10] was > 100 µM, the TGI [11] was 92.4 µM and the TGI [12] was > 100 µM. For the same molecule, the TGI [13] was > 100 µM, the TGI [14] was > 100 µM and the TGI [15] was > 100 µM. For the same molecule, the TGI [16] was > 100 µM.

In the case of `C(=Nc1ccc(-c2nc3ccccc3[nH]2)cc1)c1cccs1`, the TGI [1] is reported as > 100 µM, the TGI [2] is reported as > 100 µM and the TGI [3] is reported as 86.4 µM. The TGI [4] was > 100 µM, the TGI [5] was > 100 µM and the TGI [6] was > 100 µM. For the same molecule, the TGI [7] was > 100 µM, the TGI [8] was > 100 µM and the TGI [9] was > 100 µM. The TGI [10] was > 100 µM, the TGI [11] was > 100 µM and the TGI [12] was > 100 µM. For the same molecule, the TGI [13] was > 100 µM, the TGI [14] was > 100 µM and the TGI [15] was > 100 µM. The TGI [16] was > 100 µM.

With `Cc1cc(S(=O)(=O)N=C2N(Cc3ccccc3)CCN2Cc2ccccc2)c(S)cc1Cl` the TGI [1] was > 100 µM, the TGI [2] was > 100 µM and the TGI [3] was > 100 µM. For the same molecule, the TGI [4] was 47.4 µM, the TGI [5] was > 100 µM and the TGI [6] was > 100 µM. For the same molecule, the TGI [7] was > 100 µM, the TGI [8] was > 100 µM and the TGI [9] was > 100 µM. For the same molecule, the TGI [10] was > 100 µM, the TGI [11] was > 100 µM and the TGI [12] was > 100 µM. For the same molecule, the TGI [13] was > 100 µM, the TGI [14] was > 100 µM and the TGI [15] was > 100 µM. The TGI [16] was > 100 µM.
